pIC50: −log10 of the molar value. A value given as a limit tells only on which side of the number the result lay.

The test system of the experiment is IL-2 production. The experiment in a line: Inhibition of IL-2 production in PHA-activated Jurkat cells (ELISA). The class given is cell-based. The settings on record: Homo sapiens, PHA 2.5 μg/mL, 20 hours, IL-2 ELISA. As for the experimental part:
Jurkat cells were placed in a 96 well plate (0.5 million cells per well in 1% FBS medium) then a test compound of this invention was added at different concentrations. After 10 minutes, the cells were activated with PHA. (final concentration 2.5 μg/mL) and incubated for 20 hours at 37° C. under CO2. The final volume was 200 μL. Following incubation, the cells were centrifuged and the supernatants collected and stored at −70° C. prior to assaying for IL-2 production. A commercial ELISA kit (IL-2 Eli-pair, Diaclone Research, Besancon, France) was used to detect production of IL-2, from which dose response curves were obtained. The IC50 value was calculated as the concentration at which 50% of maximum IL-2 production after stimulation was inhibited versus a non-stimulation control.
A general note: An ELISA detects its analyte on a solid surface through an enzyme-linked reagent.

By pIC50 is commonly meant −log10 of the IC50, conventionally taken in molar units. Regarding `COC(=O)c1ccc(C)c(-c2ccc(NNC(=O)c3c(F)cccc3F)cc2)c1` [Compound 77, methyl 4′-(2-(2,6-difluorobenzoyl) hydrazinyl)-6-methylbiphenyl-3-carboxylate], the pIC50 is 6.30 to 7.30.
To `Cc1ccc(-c2ncco2)cc1-c1ccc(NC(=O)Nc2ncncc2C)cc1` [Compound 74, 1-(2′-Methyl-5′-(oxazol-2-yl)biphenyl-4-yl)-3-(5-methylpyrimidin-4-yl)urea] belongs 7.30 to 7.60; to `Cc1ccc(-c2ncco2)cc1-c1ccc(/N=C/c2c(F)cccc2F)cc1` [Compound 76, (E)-N-(2,6-difluorobenzylidene)-2′-methyl-5′-(oxazol-2-yl)biphenyl-4-amine], 6.00 to 6.30; to `Cc1ccc(-c2ncco2)cc1-c1ccc(NS(=O)(=O)c2c(F)cccc2F)cc1` [Compound 1, 2,6-Difluoro-N-(2′-methyl-5′-oxazol-2-yl-biphenyl-4-yl)-benzenesulfonamide], 6.30 to 7.30.
For `Cc1ccc(-c2cnco2)cc1-c1ccc(NC(=O)Nc2c(F)cccc2F)cc1` [Compound 4, 1-(2,6-Difluoro-phenyl)-3-(2′-methyl-5′-oxazol-5-yl-biphenyl-4-yl)-urea], the negative-log IC50 (pIC50) was greater than 7.60.

Values taken from patent publication US20140242120A1, “SUBSTITUTED AROMATIC COMPOUNDS FOR INFLAMMATION AND IMMUNE-RELATED USES” (Synta Pharmaceuticals Corp., priority 2006, published 2014).
